Among the data in US20240382600A1, “BIFUNCTIONAL DEGRADERS COMPRISING A TEAD BINDER” (Novartis AG, priority 2021, published 2024) are IC50, GI50 and DC50 values, retold here.

SMILES strings stand for the structures. Where only a bound is given, the exact number is not on record here.

Assay [1] concerns the target Avi-humanTEAD4^217-434 / Cy5 labeled humanYAP^60-100 (Homo sapiens (Human), UniProt Q15561). As to the kind of experiment: In-vitro biochemical TR-FRET assay (TEAD4/YAP). In kind it is binding. The settings on record: 1 h at room temperature.
In assay [2] the test system is MKN-45/Ubc-luc cells (unspecific inhibition of luciferase expression or activity). The experiment in a line: Reporter gene assay specificity control (Ubc-Luc), MKN-45. In kind it is cell-based. The settings on record: Homo sapiens; MKN-45/Ubc-luc specificity control, 24 hrs. The gist of the method: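 MKN-45 cells stably carrying a ubiquitin C promoter–firefly luciferase construct, treated the day after seeding with eleven 2-fold compound dilutions (0.1% DMSO final) for 24 hrs at 37° C. Luminescence read 5 min after Steady Glo addition; cell-free background subtracted, as a control for nonspecific luciferase inhibition.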

Assay [3] relates to YAP-dependent transcription in SF268-MCAT_Luc_dox-i-shYAPLevy (Clone 13) cells. As to the kind of experiment: YAP reporter gene activity assay (MCAT-Luc), SF268. In kind it is cell-based. The settings on record: Homo sapiens, SF-268; SF268 MCAT_Luc, 24 hrs.
Assay [4] has as its system NCI-H2052 Tet-On shYAP_2371 pLenti6 MCAT_Luc cells. The experiment in a line: Proliferation assay (resazurin/AlamarBlue), NCI-H2052. In kind it is cell-based. The settings on record: Homo sapiens; NCI-H2052, 72 hours.
In another assay the test system is MKN-45/Ubc-luc cells. The experiment in a line: Proliferation assay (resazurin/AlamarBlue), MKN-45. In kind it is cell-based. The settings on record: Homo sapiens; MKN-45, 72 hours. The gist of the method: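 MKN-45 cells carrying constitutive Ubc-driven luciferase reporter, treated the day after seeding with eleven 2-fold dilutions (0.1% DMSO) for 72 h at 37 °C. Viability by resazurin, referenced to day-0 plate; GI50 from % growth (100 none, 0 stasis, −100 kill) and residual viability at top concentration.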

Assay [5] deals with YAP-dependent transcription in NCI-H2052 Tet-On shYAP_2371 pLenti6 MCAT_Luc cells. As to the kind of experiment: YAP reporter gene activity assay (MCAT-Luc), NCI-H2052. In kind it is cell-based. The settings on record: Homo sapiens, 24 hrs.
For assay [6], the system named is SF268-MCAT_Luc_dox-i-shYAPLevy (Clone 13) cells. The experiment in a line: Proliferation assay (resazurin/AlamarBlue), SF268. In kind it is cell-based. The settings on record: Homo sapiens, SF-268; SF268, 72 hours.
Assay [7] concerns the target TEAD1-GFP in HEK293A cells (Homo sapiens (Human), UniProt P28347). The experiment in a line: TEAD1 protein abundance flow cytometry assay in HEK293A. In kind it is cell-based. The settings on record: HEK293A TEAD1-GFP-CHYSEL-mCherry sensor cells, 24 h, GFP signal by flow cytometry. The gist of the method:
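HEK293A stably expressing bicistronic TEAD1-GFP-CHYSEL-mCherry treated 24 h at 37° C with 10-point 3-fold series from 10 μM (0.1% DMSO), duplicate. Median GFP of 2,500 single cells by flow cytometry, normalized to parental HEK293A (0%) and DMSO (100%); DC50 from concentration-response curves.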

Sequence of Avi-humanTEAD4^217-434 / Cy5 labeled humanYAP^60-100 (Q15561 217-434): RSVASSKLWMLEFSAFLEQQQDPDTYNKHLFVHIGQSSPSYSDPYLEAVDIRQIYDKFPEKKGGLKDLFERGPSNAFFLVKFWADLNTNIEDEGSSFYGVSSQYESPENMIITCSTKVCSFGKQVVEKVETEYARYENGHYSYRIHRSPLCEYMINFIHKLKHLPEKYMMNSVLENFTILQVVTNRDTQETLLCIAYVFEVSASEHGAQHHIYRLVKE
Sequence of TEAD1-GFP in HEK293A cells (P28347 whole entry): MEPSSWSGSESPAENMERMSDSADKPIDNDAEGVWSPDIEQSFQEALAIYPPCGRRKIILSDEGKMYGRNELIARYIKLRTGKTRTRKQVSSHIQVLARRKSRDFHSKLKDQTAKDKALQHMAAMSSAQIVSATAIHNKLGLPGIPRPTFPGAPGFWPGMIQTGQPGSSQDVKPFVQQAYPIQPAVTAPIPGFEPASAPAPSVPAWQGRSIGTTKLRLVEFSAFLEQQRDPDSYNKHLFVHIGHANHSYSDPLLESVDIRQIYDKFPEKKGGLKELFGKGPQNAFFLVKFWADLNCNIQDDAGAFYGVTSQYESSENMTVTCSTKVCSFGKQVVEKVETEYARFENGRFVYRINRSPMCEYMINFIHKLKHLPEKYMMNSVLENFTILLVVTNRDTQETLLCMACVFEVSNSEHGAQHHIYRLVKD

With `COc1ccc(C(N)=O)c(-c2c(Cl)c(F)cc3c2[C@H](C)[C@@](CN[C@H]2CC[C@H](C(=O)N4CCC(CC5CCN(C(=O)COc6ccc(N7CCC(=O)NC7=O)cc6)CC5)CC4)CC2)(c2ccccc2)O3)c1F` (atropisomer, axis not shown) [Example 25, 2-((2S,3S,4S)-5-chloro-2-((((1r,4S)-4-(4-((1-(2-(4-(2,4-dioxotetrahydropyrimidin-1(2H)-yl)phenoxy)acetyl)piperidin-4-yl)methyl)piperidine-1-carbonyl)cyclohexyl)amino)methyl)-6-fluoro-3-methyl-2-phenyl-2,3-dihydrobenzofuran-4-yl)-3-fluoro-4-methoxybenzamide], the 50% inhibitory concentration (IC50) was 2.4 nM in assay [1], over 2000 nM in assay [2], 0.54 nM in assay [3] and 3.2 nM in assay [5]. The GI50 in assay [4] is 8.5 nM; in the assay with MKN-45/Ubc-luc cells, over 2000 nM; in assay [6] it was 22 nM. For the same compound, the DC50 in assay [7] came out at 0.5 nM.

For the compound `COc1ccc(C(N)=O)c(-c2c(Cl)c(F)cc3c2[C@H](C)[C@@](CN[C@H]2CC[C@H](C(=O)N4CCC(CC5CCN(C(=O)COc6ccc(N7CCC(=O)NC7=O)c(C)c6)CC5)CC4)CC2)(c2ccccc2)O3)c1F` (atropisomer, axis not shown) [Example 26, 2-((2S,3S,4S)-5-chloro-2-((((1r,4S)-4-(4-((1-(2-(4-(2,4-dioxotetrahydropyrimidin-1(2H)-yl)-3-methylphenoxy)acetyl)piperidin-4-yl)methyl)piperidine-1-carbonyl)cyclohexyl)amino)methyl)-6-fluoro-3-methyl-2-phenyl-2,3-dihydrobenzofuran-4-yl)-3-fluoro-4-methoxybenzamide], the IC50 was 4 nM in assay [1], over 2000 nM in assay [2], 0.26 nM in assay [3] and 1.3 nM in assay [5]. The GI50 in assay [4] is 2.5 nM; with MKN-45/Ubc-luc cells, over 2000 nM; in assay [6], 12 nM. This compound also showed a DC50 in assay [7] of 0.3 nM.

As to `COc1ccc(C(N)=O)c(-c2c(Cl)c(F)cc3c2[C@H](C)[C@@](CN[C@H]2CC[C@H](C(=O)N4CCC(OC5CCN(C(=O)COc6cc(-c7scnc7C)ccc6CNC(=O)[C@@H]6C[C@@H](O)CN6C(=O)[C@@H](NC(=O)C6(F)CC6)C(C)(C)C)CC5)CC4)CC2)(c2ccccc2)O3)c1F` (atropisomer, axis not shown) [Example 38, (2S,4R)-N-(2-(2-(4-((1-((1S,4r)-4-((((2S,3S,4S)-4-(6-carbamoyl-2-fluoro-3-methoxyphenyl)-5-chloro-6-fluoro-3-methyl-2-phenyl-2,3-dihydrobenzofuran-2-yl)methyl)amino)cyclohexane-1-carbonyl)piperidin-4-yl)oxy)piperidin-1-yl)-2-oxoethoxy)-4-(4-methylthiazol-5-yl)benzyl)-1-((S)-2-(1-fluorocyclopropane-1-carboxamido)-3,3-dimethylbutanoyl)-4-hydroxypyrrolidine-2-carboxamide], the IC50 is 7 nM in assay [1], over 2000 nM in assay [2], 0.42 nM in assay [3] and 4 nM in assay [5]. The results for the GI50 (in assay [4]; in the assay on MKN-45/Ubc-luc cells; in assay [6]) were 22 nM, over 2000 nM and 24 nM, respectively. The compound further yielded a DC50 in assay [7] of 1 nM.
